Test results as given in PMC5547389, “Structure-activity relationships and molecular docking studies of chromene and chromene based azo chromophores: A novel series of potent antimicrobial and anticancer agents” (EXCLI Journal, 2017).
In brackets after ≈: the same amount, converted by molar mass.

How the values were obtained:
[1] = tested on: Pseudomonas aeruginosa (RCMB 010043); assay: MIC by serial dilution method; assay type: cell-based; settings: RCMB010043, Gm-ve, read-out: Minimum inhibitory concentration, MIC, P.A
In short: (§1)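 MIC values come from a serial dilution method that followed initial activity screening by agar diffusion in wells. Reference drugs were ampicillin, ciprofloxacin, gentamicin and amphotericin B.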

[2] = tested on: Pseudomonas aeruginosa (RCMB 010043); assay: Well diffusion assay (inhibition zone); assay type: cell-based; settings: RCMB010043, 5 mg/mL in DMSO, Gm-ve, read-out: Inhibition Zone (IZ) diameter, P.A
In short: (§2)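 Agar well diffusion with 10 mm wells, nutrient agar for bacteria and malt extract agar for fungi. Plates were incubated 24-48 h at 37 °C for bacteria or 28 °C for fungi. Inhibition zone diameters were measured in mm, in triplicate.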

caspase-3 and -7 = assay: Caspase-Glo 3/7 caspase activity assay; assay type: cell-based, human; settings: compared to control and doxorubicin; MCF-7 and HCT-116; compounds at IC50 concentration, 48 h
Protocol: To measure caspase-3 and -7 activities, a luminescent Caspase-Glo 3/7 assay was performed. HCT116 and MCF-7 cells were seeded onto black 96-well plates at a density of 3,500 cells/well. […] After 48 h a Caspase-Glo 3/7 Assay (Promega) was performed according to the manufacturer's instructions. After adding 100 μL of Caspase 3/7 Glo Reagent, cells were incubated for 2.5 h at room temperature. The luminescence was measured using a multi-plate reader (Synergy 4, BioTek) with an integration time of 1 second per well. The values are the means ± SD of three sets of experiments.
The initial reported assay of 4-aryl-4H-chromene series were identified as apoptosis inducers via caspase activation (Elinson et al., 2010[20]; Sondhi et al., 2010[58]; Thareja et al., 2010[60]; Trinchieri, 2015[61]). Furthermore, it was important to investigate the antiproliferative effect of the novel synthesized compounds 4a, 4b, and 4c using caspase-3 and -7 activities compared to doxorubicin and vehicle control drug in the corresponding cancer cell lines MCF-7 and HCT-116.

[3] = tested on: Candida albicans (RCMB 05036); assay: MIC by serial dilution method; assay type: cell-based; settings: RCMB05036, fungi, read-out: Minimum inhibitory concentration, MIC, C.A
In short: as §1

[4] = tested on: Candida albicans (RCMB 05036); assay: Well diffusion assay (inhibition zone); assay type: cell-based; settings: RCMB05036, 5 mg/mL in DMSO, fungi, read-out: Inhibition Zone (IZ) diameter, C.A
In short: as §2

Row | MIC [1] [µg/mL] | Structure (SMILES) | zone of inhibition at 5000 µg/mL [2] [mm] | elevation in the caspase activity (caspase-3 and -7) | MIC [3] [µg/mL] | zone of inhibition at 5000 µg/mL [4] [mm]
1 | 125 (≈ 359 µM) | N#CC1=C(N)Oc2c(N)cc3ccccc3c2C1c1ccc(Cl)cc1 (stereo not drawn) [4b, 3,5-diamino-1-(4-chlorophenyl)-1H-benzo[f]chromene-2-carbonitrile] | 13.1 | 2-3 folds | – | –
2 | – | Cc1ccc(C2C(C#N)=C(N)Oc3c(N)cc4ccccc4c32)cc1 (stereo not drawn) [4c, 3,5-diamino-1-(p-tolyl)-1H-benzo[f]chromene-2-carbonitrile] | – | 2-3 folds | – | –
3 | – | N#CC1=C(N)Oc2c(N)cc3ccccc3c2C1c1ccc(F)cc1 (stereo not drawn) [4a, 3,5-diamino-1-(4-fluorophenyl)-1H-benzo[f]chromene-2-carbonitrile] | – | – | 125 (≈ 377 µM) | 9.4
